From patent US8828401B2, “Cytotoxic peptides and antibody drug conjugates thereof” (Pfizer Inc., priority 2011, dated 2014)
Starred links: 1 amine or outer side, 2 acyl side, 3 side chain; linkers in the order of their positions; H or OH if unused. Non-standard residues stand in square brackets, D forms with d. Residues, ends and D or L forms follow the SMILES beside them. *: point of attachment. Dolaproine = CO[C@@H]([C@@H]1CCCN1)[C@@H](C)C(=O)O; X11 = O=C([C@@H](N[*:1])[C@H]1Cc2ccccc21)[*:2]; X2 = O=C([C@H](N[*:1])C1(c2ccccc2)CC1)[*:2]; Dil = CC[C@H](C)[C@H](NC)[C@@H](CC(=O)O)OC; Doe = c1ccc(C[C@H](N*)c2nccs2)cc1; d(αMeV) = CC(C)[C@@](C)(N)C(=O)O; d(αMeP) = C[C@]1(C(=O)O)CCCN1; Iva = CC[C@](C)(N)C(=O)O; NMeAib = CNC(C)(C)C(=O)O; X4 = CN(C)C(C)(C)C(=O)*; X8 = C1=CC=CC(CCN*)C=C1; Ac3c = NC1(C(=O)O)CC1; Aib = CC(C)(N)C(=O)O; OAll = C=CCO*; NHPr = CCCN*

Legend:
[1] = system: BT474 (breast cancer); test: In vitro cell assay, MTS cell viability 96 hours after treatment; type: cell-based; conditions: Homo sapiens, BT-474, BT474 cells; geometric mean; cytotoxic peptides; read-out: BT474 GMEAN IC50
Description: (§1) Cells were treated with 3-fold serially diluted antibody-drug conjugates or free compounds (i.e., no antibody conjugated to the drug) in duplicate at 10 concentrations. Cell viability was determined by CellTiter 96® AQueous One Solution Cell Proliferation MTS Assay (Promega, Madison Wis.) 96 hours after treatment. Relative cell viability was determined as percentage of untreated control.

[2] = system: N87 (gastric cancer); test: as above; type: cell-based; conditions: read-out: N87 GMEAN IC50, N87 cells; geometric mean; cytotoxic peptides
Description: as §1

| Compound | IC50 [1] [nM] | IC50 [2] [nM] |
| --- | --- | --- |
| CC[C@H](C)[C@@H]([C@@H](CC(=O)N1CCC[C@H]1[C@H](OC)[C@@H](C)C(=O)N[C@@H](Cc1ccccc1)C(=O)OC)OC)N(C)C(=O)[C@@H](NC(=O)[C@](C)(N)C(C)C)C(C)C [#146, 3-methyl-D-isovalyl-N-{(1S,2R)-4-{(2S)-2-[(1R,2R)-3-{[(1S)-1-benzyl-2-methoxy-2-oxoethyl]amino}-1-methoxy-2-methyl-3-oxopropyl]pyrrolidin-1-yl}-2-methoxy-1-[(1S)-1-methylpropyl]-4-oxobutyl}-N-methyl-L-valinamide] (H-[d(αMeV)]V[Dil][Dolaproine]F-OMe) | 0.435 | 0.195 |
| C=CCOC(=O)[C@H](Cc1ccccc1)NC(=O)[C@H](C)[C@@H](OC)[C@@H]1CCCN1C(=O)C[C@@H](OC)[C@H]([C@@H](C)CC)N(C)C(=O)[C@@H](NC(=O)C(C)(C)NC)C(C)C [#238] (H-[NMeAib]V[Dil][Dolaproine]F-OAll) | 0.139 | 0.077 |
| CC[C@H](C)[C@@H]([C@@H](CC(=O)N1CCC[C@H]1[C@H](OC)[C@@H](C)C(=O)N[C@@H](Cc1ccccc1)c1nccs1)OC)N(C)C(=O)[C@@H](NC(=O)C(C)(C)N)C(C)C [#54, 2-methylalanyl-N-[(3R,4S,5S)-3-methoxy-1-{(2S)-2-[(1R,2R)-1-methoxy-2-methyl-3-oxo-3-{[(1S)-2-phenyl-1-(1,3-thiazol-2-yl)ethyl]amino}propyl]pyrrolidin-1-yl}-5-methyl-1-oxoheptan-4-yl]-N-methyl-L-valinamide] (H-[Aib]V[Dil][Dolaproine]-Doe) | < 0.133 | < 0.221 |
| CC[C@H](C)[C@@H]([C@@H](CC(=O)N1CCC[C@H]1[C@H](OC)[C@@H](C)C(=O)N[C@@H](Cc1ccccc1)C(=O)OC)OC)N(C)C(=O)[C@@H](NC(=O)[C@@]1(C)CCCN1)C(C)C [#131, 2-methyl-D-prolyl-N-[(3R,4S,5S)-3-methoxy-1-{(2S)-2-[(1R,2R)-1-methoxy-3-{[(2S)-1-methoxy-1-oxo-3-phenylpropan-2-yl]amino}-2-methyl-3-oxopropyl]pyrrolidin-1-yl}-5-methyl-1-oxoheptan-4-yl]-N-methyl-L-valinamide] (H-[d(αMeP)]V[Dil][Dolaproine]F-OMe) | 0.072 | – |
| CC[C@H](C)[C@@H]([C@@H](CC(=O)N1CCC[C@H]1[C@H](OC)[C@@H](C)C(=O)N[C@@H](Cc1ccccc1)C(=O)O)OC)N(C)C(=O)[C@@H](NC(=O)C(C)(C)N)C(C)C [#69, 2-methylalanyl-N-[(3R,4S,5S)-1-{(2S)-2-[(1R,2R)-3-{[(1S)-1-carboxy-2-phenylethyl]amino}-1-methoxy-2-methyl-3-oxopropyl]pyrrolidin-1-yl}-3-methoxy-5-methyl-1-oxoheptan-4-yl]-N-methyl-L-valinamide] (H-[Aib]V[Dil][Dolaproine]F-OH) | 80.2 | 66 |
| CCCNC(=O)[C@H](Cc1ccccc1)NC(=O)[C@H](C)[C@@H](OC)[C@@H]1CCCN1C(=O)C[C@@H](OC)[C@H]([C@@H](C)CC)N(C)C(=O)[C@@H](NC(=O)C(C)(C)NC)C(C)C [#142, N,2-dimethylalanyl-N-{(1S,2R)-4-{(2S)-2-[(1R,2R)-3-{[(1S)-1-benzyl-2-oxo-2-(propylamino)ethyl]amino}-1-methoxy-2-methyl-3-oxopropyl]pyrrolidin-1-yl}-2-methoxy-1-[(1S)-1-methylpropyl]-4-oxobutyl}-N-methyl-L-valinamide] (H-[NMeAib]V[Dil][Dolaproine]F-NHPr) | 0.279 | – |
| CC[C@H](C)[C@@H]([C@@H](CC(=O)N1CCC[C@H]1[C@H](OC)[C@@H](C)C(=O)N[C@@H](Cc1ccccc1)C(=O)OC)OC)N(C)C(=O)[C@@H](NC(=O)[C@@](C)(N)CC)C(C)C [#148, L-isovalyl-N-{(1S,2R)-4-{(2S)-2-[(1R,2R)-3-{[(1S)-1-benzyl-2-methoxy-2-oxoethyl]amino}-1-methoxy-2-methyl-3-oxopropyl]pyrrolidin-1-yl}-2-methoxy-1-[(1S)-1-methylpropyl]-4-oxobutyl}-N-methyl-L-valinamide] (H-[Iva]V[Dil][Dolaproine]F-OMe) | 0.429 | – |
| CC[C@H](C)[C@@H]([C@@H](CC(=O)N1CCC[C@H]1[C@H](OC)[C@@H](C)C(=O)N[C@H](C(=O)OC)[C@H]1Cc2ccccc21)OC)N(C)C(=O)[C@@H](NC(=O)C(C)(C)N)C(C)C [#225] (H-[Aib]V[Dil][Dolaproine][X11]-OMe) | 3.45 | 10.5 |
| CC[C@H](C)[C@@H]([C@@H](CC(=O)N1CCC[C@H]1[C@H](OC)[C@@H](C)C(=O)N[C@@H](Cc1ccccc1)C(N)=O)OC)N(C)C(=O)[C@@H](NC(=O)C(C)(C)NC)C(C)C [#141, N,2-dimethylalanyl-N-{(1S,2R)-4-{(2S)-2-[(1R,2R)-3-{[(1S)-2-amino-1-benzyl-2-oxoethyl]amino}-1-methoxy-2-methyl-3-oxopropyl]pyrrolidin-1-yl}-2-methoxy-1-[(1S)-1-methylpropyl]-4-oxobutyl}-N-methyl-L-valinamide] (H-[NMeAib]V[Dil][Dolaproine]F-NH2) | 3.37 | 3.02 |
| CC[C@H](C)[C@@H]([C@@H](CC(=O)N1CCC[C@H]1[C@H](OC)[C@@H](C)C(=O)N[C@@H](C(=O)OC)C1(c2ccccc2)CC1)OC)N(C)C(=O)[C@@H](NC(=O)C(C)(C)N)C(C)C [#222] (H-[Aib]V[Dil][Dolaproine][X2]-OMe) | 0.158 | 0.352 |
| CC[C@H](C)[C@@H]([C@@H](CC(=O)N1CCC[C@H]1[C@H](OC)[C@@H](C)C(=O)N[C@@H](Cc1ccccc1)c1nccs1)OC)N(C)C(=O)[C@@H](NC(=O)C1(N)CC1)C(C)C [#51, N^2-[(1-aminocyclopropyl)carbonyl]-N-[(3R,4S,5S)-3-methoxy-1-{(2S)-2-[(1R,2R)-1-methoxy-2-methyl-3-oxo-3-{[(1S)-2-phenyl-1-(1,3-thiazol-2-yl)ethyl]amino}propyl]pyrrolidin-1-yl}-5-methyl-1-oxoheptan-4-yl]-N-methyl-L-valinamide] (H-[Ac3c]V[Dil][Dolaproine]-Doe) | < 0.599 | 3.66 |
| CC[C@H](C)[C@@H]([C@@H](CC(=O)N1CCC[C@H]1[C@H](OC)[C@@H](C)C(=O)N[C@@H](Cc1ccccc1)c1nccs1)OC)N(C)C(=O)[C@@H](NC(=O)[C@@]1(C)CCCCN1)C(C)C [#190, (2R)—N-[(2S)-1-{[(3R,4S,5S)-3-methoxy-1-{(2S)-2-[(1R,2R)-1-methoxy-2-methyl-3-oxo-3-{[(1S)-2-phenyl-1-(1,3-thiazol-2-yl)ethyl]amino}propyl]pyrrolidin-1-yl}-5-methyl-1-oxoheptan-4-yl](methyl)amino}-3-methyl-1-oxobutan-2-yl]-2-methylpiperidine-2-carboxamide] | 0.134 | 0.066 |
| CC[C@H](C)[C@@H]([C@@H](CC(=O)N1CCC[C@H]1[C@H](OC)[C@@H](C)C(=O)N[C@@H](Cc1ccccc1)C(=O)OC)OC)N(C)C(=O)[C@@H](NC(=O)C(C)(C)N(C)C)C(C)C [#228] (X4-V[Dil][Dolaproine]F-OMe) | 0.105 | 0.09 |
| CC[C@H](C)[C@@H]([C@@H](CC(=O)N1CCC[C@H]1[C@H](OC)[C@@H](C)C(=O)NCCC1C=CC=CC=C1)OC)N(C)C(=O)[C@@H](NC(=O)[C@@]1(C)CCCN1)C(C)C [#247] (H-[d(αMeP)]V[Dil][Dolaproine]-X8) | 1.01 | 2.06 |
